Measured values from patent US11826430B2, “Anti-cancer nuclear hormone receptor-targeting compounds” (Nuvation Bio Inc., priority 2019, dated 2023).

Key:
ER Alpha-LBD (GST) = ER Alpha-LBD (GST) (Homo sapiens (Human), UniProt P03372); assay: LanthaScreen TR-FRET ER Alpha Competitive Binding Assay; settings: Fluormone ES2 Green tracer displacement; for IC50: read-out: ERα IC50
Protocol: e. Additional cell proliferation assays: Other cancer cell lines are tested in a cell proliferation assay. For example, LnCaP, PC-3, MCF-7, HCC1428, BT474, HCT-116, SK-OV-3 or OVCAR3 cancer cells are tested. Cells are cultured in medium recommended by the supplier (e.g., ATCC or JCRB Cell Bank), at 37° C. in a 5% CO2 environment. For the proliferation assay, cells are plated in the growth medium in 96 well plates. Seeding density is adjusted according to the cell type. 24 hr later, cells are treated, in triplicate or quadruplicate, with test articles prepared in a range of concentrations by series dilution of DMSO stock solutions in growth medium, and typically incubated for three to seven days, with test article-containing medium replaced after three or four days. The number of viable cells is measured using CellTiter Glo assay (CTG, Promega, Madison, WI) or similar. Cell viability data are plotted using GraphPad Prism (GraphPad Software, Inc., San Diego, CA). In addition, a nonlinear regression model with a sigmoidal dose response and variable slope within GraphPad Prism is used to calculate the IC50 value of individual test articles. Similarly, HEK-293 and HeLa calls can also be tested by methods known in the art. f. Nuclear translocation: LNCaP cells are plated on coverslips in 24 well plates in growth medium. Twenty-four hours after plating, medium is changed to RPMI+1% csFBS and the cells are maintained in this medium for two days. Medium is replaced again and the cells are treated. Cells are fixed 4 hours after treatment and the AR immunostained using AR N20 antibody (Santa Cruz Biotechnology, Santa Cruz, CA). Nucleus is stained with DAPI. Cells are imaged with a confocal microscope. g. ER binding assay: ERα binding was assessed by the LanthaScreen® TR-FRET ER Alpha Competitive Binding Assay at Thermo Fisher. In this assay, a terbium-labeled anti-GST antibody was used to indirectly label GST-tagged ER Alpha-ligand binding domain (LBD) by binding to its GST tag. Competitive binding to the ER Alpha-LBD (GST) was detected by a test compound's ability to displace a fluorescent ligand (Fluormone™ ES2 Green tracer) from the ER Alpha-LBD (GST), which results in a loss of FRET signal between the Tb-anti-GST antibody and the tracer. When running the assay, Fluormone™ ES2 Green tracer was added to ligand test compounds or solvent controls followed by addition of a mixture of the ER Alpha-LBD (GST) and terbium anti-GST antibody. After an incubation period at room temperature, the TR-FRET ratio of 520:495 emissions were calculated and used to determine the IC50 from a dose response curve of the compound. ER and PR functional assays: COS cells are transfected with 25 ng rat progesterone receptor (PR) and 250 ng GRE-LUC or 50 ng human estrogen receptor a (ER) and 250 ng ERE-LUC. Cells are also transfected with 10 ng CMV-renilla LUC in OptiMEM medium using lipofectamine transfection reagent. Twenty-four hours after transfection medium is changed to DME+5% csFBS w/o and treated with compounds in the presence of 0.1 nM progesterone for PR and estradiol for ER. Twenty four hours after treatment, cells are harvested and luciferase assay is performed using dual luciferase assay kit. The firefly values are normalized to renilla luciferase values and represented as a ratio. i. Evaluation of test compound in mouse xenograft model: To examine the in vivo antitumor activity of test compound, tumor growth experiments are performed in a cell line xenograft model. Male NOD SCID Gamma (NSG) mice are housed as five animals per cage and are allowed free access to water and commercial rodent chow. 22RV1 cells (grown in RPMI+10% FBS) mixed with 50% matrigel basement membrane are implanted subcutaneously in castrated mice. Alternatively, an antiandrogen resistant cell line other than 22RV1, such as MR49F or VCaP, is used. Once the tumors reach 200-500 mm^3, the animals are randomized and treated intraperitoneally with vehicle (DMSO:PEG-300:corn oil 10:30:60 ratio) or test compound. […]

Human recombinant PARP1 = Human recombinant PARP1 (Homo sapiens (Human), UniProt P09874); assay: RBC HotSpot PARP1 radioisotope-based filter binding assay; settings: read-out: PARP1 IC50; 2.5 nM PARP1, histone H4, 10 μM 32P-NAD+
Protocol: (§3) RBC HotSpot Poly(ADP-ribose) Polymerases 1 (PARP1) and Poly(ADP-ribose) Polymerases 2 (PARP2) Assays: The assay was conducted at Reaction Biology Corporation (RBC; Malvern, PA). The assay principle is radioisotope-based filter binding assay where incorporation of radioisotope-labeled NAD^+ into the substrate captured on filter is detected after washout free NAD^+. Data were analyzed using Excel and GraphPad Prism software for IC50 curve fits. Each assay was conducted with PJ34 as a positive control. PARP1 assay: Human recombinant PARP1 at a final concentration of 2.5 nM was combined with histone H4 (20 μM) and test articles at various concentrations in reaction buffer (50 mM Tris-HCL, pH 8.0, 50 mM NaCl, 10 mM MgCl2, 1 mM DTT, 1% DMSO, and 20 μg/mL activated DNA). The solution was inoculated for 20 min at room temperature and the reaction initiated by adding [adenylate-^32P]-Nicotinamide Adenine Dinucleotide, ^32P-NAD^+ at a final concentration of 10 μM. After incubation for 2 hrs at room temperature, the reaction mixture was filtered and washed with 0.75% phosphoric acid for radioactivity detection. • ii. PARP2 assay: Human recombinant PARP2 at a final concentration of 2.5 nM was combined with histone H3 (20 μM) and test articles at various concentrations in reaction buffer (50 mM Tris-HCL, pH 8.0, 50 mM NaCl, 10 mM MgCl2, 1 mM DTT, 1% DMSO, and 20 μg/mL activated DNA). The solution was inoculated for 20 min at room temperature and the reaction was initiated by adding [adenylate-^32P]-Nicotinamide Adenine Dinucleotide, ^32P-NAD^+ at a final concentration of 10 μM. After incubation for 2 hrs at room temperature, the reaction mixture was filtered and washed with 0.75% phosphoric acid for radioactivity detection. b. AR binding assay: AR in LNCaP cytosol was used for determining the binding affinity of test articles and the reference compound—progesterone (Sigma, Cat: E2785, St. Louis, MO). IC50s were determined using 8 concentrations/compound. Cytosol was plated at 200 μg/well (100 μL) into a 96-well conical polypropylene plate (Agilent, Cat: 5042-1385, Santa Clara, CA) and mixed with 3 μL of test compound. After adding 100 μL of ^3H-methyltrienolone (PerkinElmer, Cat: NET590250UC, San Jose, CA), the plate was sealed and shaken at 300 rpm at 4° C. for 24 hours. Post incubation, 100 μL of radioligand adsorption buffer containing 10 mM Tris-HCl, pH 7.4; 1.5 mM EDTA; 1 mM DTT; 0.25% charcoal; 0.0025% dextran was added to individual well. Plate was shaken for 15 min at 4° C. followed by centrifugation at 3000 rpm for 30 min at 4° C. 150 μL of supernatant was transferred into scint-tube (PerkinElmer, Cat: 6000192) and mixed with 2 mL of Ultima Gold Cocktail (PerkinElmer, Cat: 6013329). Radioactivity was counted using a TriCarb 2910 TR scintillation counter (PerkinElmer). Inhibition of the radioactivity by test articles were calculated using the equation below: % Inhibition=(1−(Assay well-Average_LC)/(Average_HC-Average_LC))×100%. IC50 values were calculated and graphed using the model “log(inhibitor) vs. response—Variable slope” included in GraphPad Prism 5 (San Diego, CA). […] Ki=IC50/(1+[L]/Kd) c.

Human recombinant PARP2 = Human recombinant PARP2 (Homo sapiens (Human), UniProt Q9UGN5); assay: RBC HotSpot PARP2 radioisotope-based filter binding assay; settings: read-out: PARP2 IC50; 2.5 nM PARP2, histone H3, 10 μM 32P-NAD+
Protocol: as §3

22RV1 cells = assay: Cell proliferation assay, CellTiter Glo; type: cell-based; settings: Homo sapiens, 22Rv1, 72 h; cell growth inhibition, three days of treatment
Protocol: (§1) a. […] IC50s were determined using 8 concentrations/compound. […] Ki=IC50/(1+[L]/Kd) c.
(§2) Cells were plated at varying density in the respective growth medium in 96 well plates. 24 hr later, cells were treated, in triplicate or quadruplicate, with test articles prepared in a range of concentrations by series dilution of DMSO stock solutions in growth medium and incubated for three to seven days. The number of viable 22RV1 and HT-29 cells was measured using CellTiter Glo assay (CTG, Promega, Madison, WI) after three days of treatment. Cell viability data were plotted using GraphPad Prism (GraphPad Software, Inc., San Diego, CA). In addition, a nonlinear regression model with a sigmoidal dose response and variable slope within GraphPad Prism was used to calculate the IC50 value of individual test articles.

HT-29 cells = assay: Cell proliferation assay, CellTiter Glo; type: cell-based; settings: Homo sapiens, HT-29, 72 h; cell growth inhibition, three days of treatment
Protocol: as §1, §2

AR in LNCaP cytosol = AR in LNCaP cytosol (Homo sapiens (Human), UniProt P10275, T878A); assay: AR binding assay (3H-methyltrienolone displacement); settings: read-out: AR IC50, 4° C. for 24 hours
Sequence of AR in LNCaP cytosol (P10275 whole entry T878A): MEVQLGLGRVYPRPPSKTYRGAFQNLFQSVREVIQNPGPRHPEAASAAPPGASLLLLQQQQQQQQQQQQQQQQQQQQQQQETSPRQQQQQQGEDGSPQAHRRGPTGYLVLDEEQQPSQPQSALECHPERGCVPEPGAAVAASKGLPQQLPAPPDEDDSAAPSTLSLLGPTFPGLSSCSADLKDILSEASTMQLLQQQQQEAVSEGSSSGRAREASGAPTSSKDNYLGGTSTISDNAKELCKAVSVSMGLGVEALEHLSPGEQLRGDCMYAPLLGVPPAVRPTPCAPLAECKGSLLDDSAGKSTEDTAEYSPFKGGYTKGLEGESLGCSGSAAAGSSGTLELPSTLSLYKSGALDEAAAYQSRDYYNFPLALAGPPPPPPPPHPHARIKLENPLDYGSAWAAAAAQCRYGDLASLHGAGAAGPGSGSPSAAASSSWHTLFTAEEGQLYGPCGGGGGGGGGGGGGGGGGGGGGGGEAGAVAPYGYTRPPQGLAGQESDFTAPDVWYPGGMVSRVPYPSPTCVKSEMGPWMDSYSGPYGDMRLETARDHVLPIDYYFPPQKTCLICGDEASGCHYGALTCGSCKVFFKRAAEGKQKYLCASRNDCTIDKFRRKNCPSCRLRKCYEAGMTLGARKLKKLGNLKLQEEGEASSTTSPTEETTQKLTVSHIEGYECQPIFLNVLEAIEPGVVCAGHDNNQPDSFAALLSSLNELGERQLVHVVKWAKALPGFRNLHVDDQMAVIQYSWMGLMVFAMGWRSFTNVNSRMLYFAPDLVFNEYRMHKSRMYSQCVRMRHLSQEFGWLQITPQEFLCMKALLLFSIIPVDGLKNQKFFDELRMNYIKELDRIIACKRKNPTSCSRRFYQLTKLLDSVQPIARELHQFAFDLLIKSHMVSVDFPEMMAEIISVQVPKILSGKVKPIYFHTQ
Protocol: as §3

Sequence of ER Alpha-LBD (GST) (P03372 311-547): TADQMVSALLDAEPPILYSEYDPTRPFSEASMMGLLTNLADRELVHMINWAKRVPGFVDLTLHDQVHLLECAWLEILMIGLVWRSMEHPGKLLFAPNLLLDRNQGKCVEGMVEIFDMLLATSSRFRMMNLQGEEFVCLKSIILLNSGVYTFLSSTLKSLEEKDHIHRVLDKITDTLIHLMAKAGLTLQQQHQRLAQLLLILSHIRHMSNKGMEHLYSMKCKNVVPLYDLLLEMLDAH
Sequence of Human recombinant PARP2 (Q9UGN5 whole entry): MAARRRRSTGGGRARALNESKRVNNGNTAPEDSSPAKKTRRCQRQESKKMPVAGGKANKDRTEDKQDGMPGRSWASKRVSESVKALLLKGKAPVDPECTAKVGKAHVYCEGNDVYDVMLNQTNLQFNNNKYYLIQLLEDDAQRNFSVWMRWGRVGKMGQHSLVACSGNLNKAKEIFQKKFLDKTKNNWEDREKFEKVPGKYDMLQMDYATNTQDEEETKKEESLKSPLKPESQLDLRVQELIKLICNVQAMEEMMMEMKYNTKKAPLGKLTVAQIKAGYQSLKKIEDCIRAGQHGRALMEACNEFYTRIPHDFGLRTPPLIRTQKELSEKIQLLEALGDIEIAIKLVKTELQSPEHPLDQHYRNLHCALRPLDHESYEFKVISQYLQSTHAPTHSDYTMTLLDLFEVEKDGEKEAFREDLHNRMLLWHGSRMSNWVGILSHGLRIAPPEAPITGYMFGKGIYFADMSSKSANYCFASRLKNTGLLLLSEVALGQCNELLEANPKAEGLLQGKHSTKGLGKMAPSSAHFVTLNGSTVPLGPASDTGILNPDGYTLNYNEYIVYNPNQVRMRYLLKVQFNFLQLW
Sequence of Human recombinant PARP1 (P09874 whole entry): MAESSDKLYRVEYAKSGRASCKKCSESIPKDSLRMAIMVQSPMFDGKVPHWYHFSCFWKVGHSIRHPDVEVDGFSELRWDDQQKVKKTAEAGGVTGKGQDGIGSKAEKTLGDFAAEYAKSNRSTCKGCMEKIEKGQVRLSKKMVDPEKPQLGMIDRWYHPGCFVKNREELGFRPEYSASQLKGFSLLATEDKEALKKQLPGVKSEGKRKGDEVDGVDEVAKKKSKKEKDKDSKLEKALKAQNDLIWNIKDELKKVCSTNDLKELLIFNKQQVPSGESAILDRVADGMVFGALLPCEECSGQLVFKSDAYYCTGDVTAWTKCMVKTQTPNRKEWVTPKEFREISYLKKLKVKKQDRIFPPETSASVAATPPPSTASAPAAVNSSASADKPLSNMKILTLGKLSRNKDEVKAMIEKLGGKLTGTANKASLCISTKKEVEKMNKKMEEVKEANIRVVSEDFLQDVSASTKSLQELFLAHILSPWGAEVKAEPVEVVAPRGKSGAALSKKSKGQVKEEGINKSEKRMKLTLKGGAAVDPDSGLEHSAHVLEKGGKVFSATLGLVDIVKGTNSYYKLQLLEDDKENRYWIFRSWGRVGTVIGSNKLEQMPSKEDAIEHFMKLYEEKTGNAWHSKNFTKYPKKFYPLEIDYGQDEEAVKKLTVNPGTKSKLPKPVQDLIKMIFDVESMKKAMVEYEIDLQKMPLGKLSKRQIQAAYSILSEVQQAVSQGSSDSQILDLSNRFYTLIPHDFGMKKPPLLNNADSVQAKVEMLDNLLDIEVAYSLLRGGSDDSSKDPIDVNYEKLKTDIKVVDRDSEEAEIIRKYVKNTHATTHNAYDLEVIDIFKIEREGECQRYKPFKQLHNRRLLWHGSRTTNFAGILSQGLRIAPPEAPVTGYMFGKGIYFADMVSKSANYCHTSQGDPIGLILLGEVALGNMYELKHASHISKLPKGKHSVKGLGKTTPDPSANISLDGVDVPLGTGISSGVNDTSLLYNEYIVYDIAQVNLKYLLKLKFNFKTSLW

SMILES | IC50 (ER Alpha-LBD (GST)) | Ki (ER Alpha-LBD (GST); read-out: ERα Ki) | IC50 (Human recombinant PARP1) | IC50 (Human recombinant PARP2) | IC50 (22RV1 cells) | IC50 (HT-29 cells) | IC50 (AR in LNCaP cytosol)
CC/C(=C(/c1ccc(OCCCOCCN2CCN(C(=O)c3cc(Cc4n[nH]c(=O)c5ccccc45)ccc3F)CC2)cc1)c1ccc2[nH]ncc2c1)c1ccc(Cl)cc1F [Compound 2.54, (E)-4-(3-(4-(2-(3-(4-(2-(4-chloro-2-fluorophenyl)-1-(1H-indazol-5-yl)but-1-enyl)phenoxy)propoxy)ethyl)piperazine-1-carbonyl)-4-fluorobenzyl)phthalazin-1(2H)-one] | 64.1 nM | 34.5 nM | 40 nM | 5 nM |  |  | 
C[C@@H]1Cc2c([nH]c3ccccc23)[C@@H](c2c(F)cc(OCCCCCC(=O)N3CCN(C(=O)c4cc(Cc5n[nH]c(=O)c6ccccc56)ccc4F)CC3)cc2F)N1CC(C)(C)F [Compound 2.50, 4-(3-(4-(6-(3,5-difluoro-4-((1R,3R)-2-(2-fluoro-2-methylpropyl)-3-methyl-2,3,4,9-tetrahydro-1H-pyrido[3,4-b]indol-1-yl)phenoxy)hexanoyl)piperazine-1-carbonyl)-4-fluorobenzyl)phthalazin-1(2H)-one] | 5.7 nM |  | 21 nM | 3 nM |  |  | 
C[C@H]1Cc2c([nH]c3ccccc23)[C@H](c2c(F)cc(OCCN3CCN(C(=O)c4cc(Cc5n[nH]c(=O)c6ccccc56)ccc4F)CC3)cc2F)N1CC(C)(C)F (stereo in doubt) [Compound 2.51, 4-(3-(4-(2-(3,5-difluoro-4-((1S,3S)-2-(2-fluoro-2-methylpropyl)-3-methyl-2,3,4,9-tetrahydro-1H-pyrido[3,4-b]indol-1-yl)phenoxy)ethyl)piperazine-1-carbonyl)-4-fluorobenzyl)phthalazin-1(2H)-one] | 44 nM |  | 28 nM | 4 nM |  |  | 
CC/C(=C(/c1ccc(OCCCOCC(=O)N2CCN(C(=O)c3cc(Cc4n[nH]c(=O)c5ccccc45)ccc3F)CC2)cc1)c1ccc2[nH]ncc2c1)c1ccc(Cl)cc1F [Compound 2.53, (E)-4-(3-(4-(2-(3-(4-(2-(4-chloro-2-fluorophenyl)-1-(1H-indazol-5-yl)but-1-enyl)phenoxy)propoxy)acetyl)piperazine-1-carbonyl)-4-fluorobenzyl)phthalazin-1(2H)-one] | 3.4 nM |  | 95 nM | 6 nM |  |  | 
Cn1ncnc1[C@H]1c2n[nH]c(=O)c3cc(F)cc(c23)N[C@@H]1c1ccc(N2C(=S)N(c3ccc(C#N)c(C(F)(F)F)c3)C(=O)C2(C)C)cc1 [Compound 1.2a, 4-(3-(4-((8S,9R)-5-fluoro-9-(1-methyl-1H-1,2,4-triazol-5-yl)-3-oxo-3,7,8,9-tetrahydro-2H-pyrido[4,3,2-de]phthalazin-8-yl)phenyl)-4,4-dimethyl-5-oxo-2-thioxoimidazolidin-1-yl)-2-(trifluoromethyl)benzonitrile] |  |  |  | 0.3 nM | > 10000 nM | > 10000 nM | > 3750 nM
Cn1ncnc1[C@H]1c2n[nH]c(=O)c3cc(F)cc(c23)N[C@@H]1c1ccc(OC[C@](C)(O)C(=O)Nc2ccc(C#N)c(C(F)(F)F)c2)cc1 [Compound 1.1a, (S)—N-(4-cyano-3-(trifluoromethyl)phenyl)-3-(4-((8S,9R)-5-fluoro-9-(1-methyl-1H-1,2,4-triazol-5-yl)-3-oxo-3,7,8,9-tetrahydro-2H-pyrido[4,3,2-de]phthalazin-8-yl)phenoxy)-2-hydroxy-2-methylpropanamide] |  |  | > 1000 nM | > 1000 nM | > 10000 nM | > 10000 nM | 
Cn1ncnc1[C@@H]1c2n[nH]c(=O)c3cc(F)cc(c23)N[C@H]1c1ccc(N2C(=S)N(c3ccc(C#N)c(C(F)(F)F)c3)C(=O)C2(C)C)cc1 [Compound 1.2b, 4-(3-(4-((8R,9S)-5-fluoro-9-(1-methyl-1H-1,2,4-triazol-5-yl)-3-oxo-3,7,8,9-tetrahydro-2H-pyrido[4,3,2-de]phthalazin-8-yl)phenyl)-4,4-dimethyl-5-oxo-2-thioxoimidazolidin-1-yl)-2-(trifluoromethyl)benzonitrile] |  |  |  | 20 nM | > 10000 nM | > 10000 nM | 
Cn1ncnc1[C@@H]1c2n[nH]c(=O)c3cc(F)cc(c23)N[C@H]1c1ccc(OC[C@](C)(O)C(=O)Nc2ccc(C#N)c(C(F)(F)F)c2)cc1 [Compound 1.1b, (S)—N-(4-cyano-3-(trifluoromethyl)phenyl)-3-(4-((8R,9S)-5-fluoro-9-(1-methyl-1H-1,2,4-triazol-5-yl)-3-oxo-3,7,8,9-tetrahydro-2H-pyrido[4,3,2-de]phthalazin-8-yl)phenoxy)-2-hydroxy-2-methylpropanamide] |  |  | 60 nM | 30 nM | > 10000 nM | > 10000 nM | 
CC/C(=C(/c1ccc(OCCCCCC(=O)N2CCN(C(=O)c3cc(Cc4n[nH]c(=O)c5ccccc45)ccc3F)CC2)cc1)c1ccc2[nH]ncc2c1)c1ccc(Cl)cc1F [Compound 2.49, (E)-4-(3-(4-(6-(4-(2-(4-chloro-2-fluorophenyl)-1-(1H-indazol-5-yl)but-1-en-1-yl)phenoxy)hexanoyl)piperazine-1-carbonyl)-4-fluorobenzyl)phthalazin-1(2H)-one] | 4.4 nM |  | 204 nM | 9 nM |  |  | 
CC/C(=C(/c1ccc(OCCCCCCN2CCN(C(=O)c3cc(Cc4n[nH]c(=O)c5ccccc45)ccc3F)CC2)cc1)c1ccc2[nH]ncc2c1)c1ccc(Cl)cc1F [Compound 2.52, (E)-4-(3-(4-(6-(4-(2-(4-chloro-2-fluorophenyl)-1-(1H-indazol-5-yl)but-1-enyl)phenoxy)hexyl)piperazine-1-carbonyl)-4-fluorobenzyl)phthalazin-1(2H)-one] | 5.3 nM |  | 187 nM | 29 nM |  |  | 
CC1(C)C(=O)N(c2ccc(C#N)c(C(F)(F)F)c2)C(=S)N1C1CCN(C(=O)c2cc(Cc3n[nH]c(=O)c4ccccc34)ccc2F)CC1 [Compound 1.3, 4-(3-(1-(2-fluoro-5-((4-oxo-3,4-dihydrophthalazin-1-yl)methyl)benzoyl)piperidin-4-yl)-4,4-dimethyl-5-oxo-2-thioxoimidazolidin-1-yl)-2-(trifluoromethyl)benzonitrile] |  |  | 3 nM | 0.6 nM |  |  | 
